Measurements as given in patent US7064217B2 (University of Virginia Patent Foundation, priority 2001, dated 2006).
“Also recorded” adds a separate entry of the source. Where two headings read alike, the source gives them in different places. Values belong to the molecule of their own block, whether it stands above or below them.

Columns and labels:
Assay type in all cases: biochemical
zS1P1 = target: T1, zS1P1 (Danio rerio, UniProt Q9DDK4); assay: [γ-35S]GTP binding, zebrafish S1P1 overexpressed in rat RH-7777 cells; conditions: GTPγS binding, zebrafish S1P1 in rat RH-7777
T1 construct: expressed in transfected cells; host or cells: rat hepatoma RH-7777
T1 sequence (Q9DDK4 1-362): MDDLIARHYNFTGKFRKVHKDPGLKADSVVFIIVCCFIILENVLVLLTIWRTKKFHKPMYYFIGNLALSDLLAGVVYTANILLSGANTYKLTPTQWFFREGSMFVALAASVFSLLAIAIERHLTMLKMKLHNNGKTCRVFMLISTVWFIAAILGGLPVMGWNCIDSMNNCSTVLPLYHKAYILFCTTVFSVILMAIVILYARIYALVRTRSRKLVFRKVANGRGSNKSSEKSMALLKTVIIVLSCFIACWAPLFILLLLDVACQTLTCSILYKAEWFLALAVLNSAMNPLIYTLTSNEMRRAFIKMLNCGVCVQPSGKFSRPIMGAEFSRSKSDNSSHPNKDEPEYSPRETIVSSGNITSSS
Protocol: (§1) After incubating for 30 min at 30° C., bound radionuclide was separated from free by filtration through Whatman GF/C paper using a Brandel Cell Harvester (Gaithersburg, Md.).
Rat hepatoma RH7777 cell monolayers were transfected with human or mouse S1P5/pCR3.1 DNA using the calcium phosphate precipitate method, and clonal populations expressing the neomycin phosphotransferase gene were selected by addition of Ge-neticin (G418) to the culture medium. The RH7777 cells were grown in monolayers at 37° C. in a 5%CO2/95% air atmosphere in growth medium consisting of 90% MEM, 10% fetal bovine serum, 2 mM glutamine, and 1 mM sodium pyruvate.
(§2) Assay of cAMP accumulation was performed as described previously (See Im et al., J. Biol. Chem. 275, 14281–14286 (2000), the disclosure of which is incorporated herein). Assays were conducted on populations of 5×10^5 cells stimulated with 1 uM forskolin in the presence of the phosphodiesterase inhibitor […] (IBMX, 1 mM) for 15 min. cAMP was measured by automated radioimmunoassay. The GTPγS studies were performed using zebrafish S1P1 overexpressed rat RH-7777 and human hS1P1, hS1P2, hS1P3 and hS1P5 overexpressed human HEK293 cells.

hS1P1 = target: T2, hS1P1 (Homo sapiens, UniProt P21453); assay: [γ-35S]GTP binding to HEK293T cell membranes, hS1P1; conditions: GTPγS binding; for EC50: read-out: EC50 Values (nM) for S1P Analogues at Recombinant S1P Receptors, hS1P1, HEK293
T2 construct: expressed in transfected cells; host or cells: HEK293T
Protocol: (§3) Human or mouse S1P5 DNA was mixed with an equal amount of DNA encoding a rat Gi2R protein as well as DNAs encoding cow β1 and γ2 proteins and used to transfect monolayers of HEK293T cells using the calcium phosphate precipitate method. After 60 h, cells were harvested, and microsomes were prepared, aliquoted, and stored at −70° C. until use.
as §1, §2
(§4) An additional series of compounds was tested using the GTPγS binding assay described in Example 2 and in Im et al., J. Biol. Chem. 275, 14281–14286 (2000), the disclosure of which is incorporated herein).

hS1P3 = target: T3, hS1P3 (Homo sapiens, UniProt Q99500); assay: [γ-35S]GTP binding to HEK293T cell membranes, hS1P3; conditions: GTPγS binding; for EC50: read-out: EC50 Values (nM) for S1P Analogues at Recombinant S1P Receptors, hS1P3, HEK293; for activity at the S1P3 receptor (inverse agonism/antagonism or agonism): Example 3 series
T3 construct: expressed in transfected cells; host or cells: HEK293T
Protocol: as §3, §1, §2, §4

mS1P5 = target: T4, mS1P5 (Mus musculus, UniProt Q91X56); assay: [γ-35S]GTP binding to HEK293T cell membranes, mS1P5; conditions: GTPγS binding
T4 construct: expressed in transfected cells; host or cells: HEK293T
Protocol: as §3, §1, §2

hS1P2 = target: T5, hS1P2 (Homo sapiens, UniProt O95136); assay: [γ-35S]GTP binding to HEK293T cell membranes, hS1P2; conditions: GTPγS binding; for EC50: read-out: EC50 Values (nM) for S1P Analogues at Recombinant S1P Receptors, hS1P2, HEK293; for activity at the S1P2 receptor: Example 3 series
T5 construct: expressed in transfected cells; host or cells: HEK293T
Protocol: as §3, §1, §2, §4

hS1P5 = target: T6, hS1P5 (Homo sapiens, UniProt Q9H228); assay: [γ-35S]GTP binding to HEK293T cell membranes, hS1P5; conditions: read-out: EC50 Values (nM) for S1P Analogues at Recombinant S1P Receptors, hS1P5; GTPγS binding; HEK293
T6 construct: expressed in transfected cells; host or cells: HEK293T
Protocol: as §3, §1, §2, §4

hS1P4 = target: T7, hS1P4 (Homo sapiens, UniProt O95977); assay: [γ-35S]GTP binding to HEK293T cell membranes, hS1P4; conditions: GTPγS binding, primary alcohols
T7 construct: expressed in transfected cells; host or cells: HEK293T
T7 sequence (O95977 1-384): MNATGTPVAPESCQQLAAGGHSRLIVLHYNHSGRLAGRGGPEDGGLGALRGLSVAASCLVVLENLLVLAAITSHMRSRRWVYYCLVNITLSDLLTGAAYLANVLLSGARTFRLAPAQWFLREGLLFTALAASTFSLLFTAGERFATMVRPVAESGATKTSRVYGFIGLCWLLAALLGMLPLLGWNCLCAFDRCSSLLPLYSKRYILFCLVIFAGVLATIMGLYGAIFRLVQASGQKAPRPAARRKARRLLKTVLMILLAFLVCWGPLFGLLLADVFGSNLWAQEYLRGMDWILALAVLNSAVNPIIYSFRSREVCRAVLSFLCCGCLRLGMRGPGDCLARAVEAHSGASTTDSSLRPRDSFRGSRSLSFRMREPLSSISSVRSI
Protocol: as §1, §4

S1P receptors = assay: [γ-35S]GTP binding assay, statements across the recombinant S1P receptors tested; conditions: GTPγS binding
Protocol: as §3, §1, §2, §4

[1] = read-out: EC50 Values (nM) for S1P Analogues at Recombinant S1P Receptors, zS1P1
[2] = read-out: EC50 Values (nM) for S1P Analogues at Recombinant S1P Receptors, mS1P5

T5 sequence (O95136 whole entry): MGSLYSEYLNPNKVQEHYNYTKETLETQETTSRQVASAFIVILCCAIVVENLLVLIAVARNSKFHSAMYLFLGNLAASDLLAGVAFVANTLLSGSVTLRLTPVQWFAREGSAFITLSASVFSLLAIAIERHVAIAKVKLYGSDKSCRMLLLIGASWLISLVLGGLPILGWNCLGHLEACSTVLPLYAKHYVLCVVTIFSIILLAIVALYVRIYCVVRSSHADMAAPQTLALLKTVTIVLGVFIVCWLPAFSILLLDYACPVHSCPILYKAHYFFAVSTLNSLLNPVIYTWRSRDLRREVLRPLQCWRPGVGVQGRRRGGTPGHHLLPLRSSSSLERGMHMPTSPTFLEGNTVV
T6 sequence (Q9H228 whole entry): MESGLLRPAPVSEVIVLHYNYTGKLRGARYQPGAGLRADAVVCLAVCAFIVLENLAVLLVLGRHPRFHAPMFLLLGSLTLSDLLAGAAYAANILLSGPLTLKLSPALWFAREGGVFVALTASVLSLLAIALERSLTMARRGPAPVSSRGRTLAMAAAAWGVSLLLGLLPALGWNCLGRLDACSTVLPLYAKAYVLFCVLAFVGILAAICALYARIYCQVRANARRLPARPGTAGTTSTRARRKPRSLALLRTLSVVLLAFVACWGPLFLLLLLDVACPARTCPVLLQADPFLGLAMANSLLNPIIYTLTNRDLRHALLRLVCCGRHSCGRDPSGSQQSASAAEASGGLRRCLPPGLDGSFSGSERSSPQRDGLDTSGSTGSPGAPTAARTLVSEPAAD
T2 sequence (P21453 whole entry): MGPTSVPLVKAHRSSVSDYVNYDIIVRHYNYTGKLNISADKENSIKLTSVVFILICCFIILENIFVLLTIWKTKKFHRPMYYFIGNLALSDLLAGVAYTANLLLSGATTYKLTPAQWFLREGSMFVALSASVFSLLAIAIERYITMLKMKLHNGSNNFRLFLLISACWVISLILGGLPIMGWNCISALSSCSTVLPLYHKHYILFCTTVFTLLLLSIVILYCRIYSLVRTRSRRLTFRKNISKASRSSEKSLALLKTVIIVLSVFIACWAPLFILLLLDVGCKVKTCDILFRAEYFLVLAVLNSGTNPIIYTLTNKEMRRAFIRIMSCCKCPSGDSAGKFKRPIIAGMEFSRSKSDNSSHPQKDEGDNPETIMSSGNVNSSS
T3 sequence (Q99500 whole entry): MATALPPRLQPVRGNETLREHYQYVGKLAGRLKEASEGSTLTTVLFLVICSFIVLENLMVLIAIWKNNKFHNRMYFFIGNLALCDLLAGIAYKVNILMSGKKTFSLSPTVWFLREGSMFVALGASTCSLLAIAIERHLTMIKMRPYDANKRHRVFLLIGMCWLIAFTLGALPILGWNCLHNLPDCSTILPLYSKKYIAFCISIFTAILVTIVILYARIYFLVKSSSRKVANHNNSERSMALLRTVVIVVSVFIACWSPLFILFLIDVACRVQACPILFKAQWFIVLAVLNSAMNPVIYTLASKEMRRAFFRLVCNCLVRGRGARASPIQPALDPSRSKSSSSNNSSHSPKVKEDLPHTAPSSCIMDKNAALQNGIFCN
T4 sequence (Q91X56 whole entry): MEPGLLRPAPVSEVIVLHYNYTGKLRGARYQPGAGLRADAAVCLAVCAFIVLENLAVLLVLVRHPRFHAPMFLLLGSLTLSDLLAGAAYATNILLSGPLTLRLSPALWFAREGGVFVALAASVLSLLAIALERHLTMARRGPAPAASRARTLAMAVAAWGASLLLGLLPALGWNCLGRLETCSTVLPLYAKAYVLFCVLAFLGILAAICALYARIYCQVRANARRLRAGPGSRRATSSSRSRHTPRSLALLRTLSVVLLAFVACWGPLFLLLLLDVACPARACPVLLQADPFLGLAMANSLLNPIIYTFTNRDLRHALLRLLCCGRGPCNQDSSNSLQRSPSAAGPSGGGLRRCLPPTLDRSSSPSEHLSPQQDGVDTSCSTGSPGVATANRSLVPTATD

Structure (SMILES): CCCCCCCCCCCCC/C=C/[C@@H](O)[C@@H](N)COP(=O)(O)O [Compound S1P, Sphingosine-1-phosphate, reference compound]
- EC50 (zS1P1): 54.6 nM
- EC50 (hS1P1): 0.9 nM
- EC50 (hS1P3): 1.1 nM
- EC50 (mS1P5): 12.7 nM

- EC50 (zS1P1): 2050 nM
- EC50 (hS1P1): 598 nM
- EC50 (hS1P3): 845 nM
- EC50 (hS1P2): 973 nM
- EC50 (hS1P5): 646 nM
- EC50 (mS1P5): > 5000 nM
Structure (SMILES): CCCCCCCCCCCCNC(=O)[C@@H](N)COP(=O)(O)O [VPC22041]

- EC50 (zS1P1; [1]): > 5000 nM
- EC50 (hS1P1): 322 nM
- EC50 (hS1P3): 602 nM
- EC50 (hS1P2): 2760 nM
- EC50 (hS1P5): > 5000 nM
- EC50 (mS1P5; [2]): > 5000 nM
Structure (SMILES): CCCCCCCCCCCCCCNC(=O)[C@@H](N)COP(=O)(O)O [VPC22051]

- EC50 (zS1P1; [1]): > 5000 nM
- loss of potency relative to enantiomer VPC22135 at S1P1 receptor (hS1P1): more than 1 log order
- EC50 (hS1P1): 397 nM
- loss of potency relative to enantiomer VPC22135 at S1P3 receptor (hS1P3): more than 1 log order
- EC50 (hS1P3): 862 nM
- EC50 (hS1P2): 2680 nM
- EC50 (hS1P5): 1610 nM
- EC50 (mS1P5; [2]): 2010 nM
Structure (SMILES): CCCCCCCCCCCCCCOC(=O)[C@@H](N)COP(=O)(O)O.O=C(O)C(F)(F)F [VPC22053]

- EC50 (zS1P1): > 5000 nM
- EC50 (hS1P1): 1800 nM
- EC50 (hS1P3): 879 nM
- EC50 (hS1P5): 1220 nM
- EC50 (mS1P5): 1330 nM
Structure (SMILES): CCCCCCCCCCCCCCCCNC(=O)[C@@H](N)COP(=O)(O)O [VPC22063]

- EC50 (zS1P1): 1620 nM
- potency relative to S1P at human S1P1 receptor (hS1P1): approached the potency of S1P
- EC50 (hS1P1): 12.7 nM
- potency relative to S1P at human S1P3 receptor (hS1P3): approached the potency of S1P
- EC50 (hS1P3): 50.8 nM
- EC50 (hS1P2): 2110 nM
- EC50 (mS1P5): 1820 nM
Structure (SMILES): CCCCCCCCCCCCCCNC(=O)[C@H](N)COP(=O)(O)O [VPC22135]

- activity at S1P1 (antagonism) (hS1P1; competition with S1P): antagonism
- activity at the S1P3 receptor (inverse agonism/antagonism or agonism) (hS1P3): inverse agonists
Structure (SMILES): CCCCCCCCc1cccc(NC(=O)[C@H](N)COP(=O)(O)O)c1 [VPC23019]
- activity at the S1P2 receptor (hS1P2): failed to show significant activity; also recorded: inactive

- activity at the S1P3 receptor (inverse agonism/antagonism or agonism) (hS1P3): inverse agonists
Structure (SMILES): CCCCCCc1cccc(NC(=O)[C@H](N)COP(=O)(O)O)c1.O=C(O)C(F)(F)F [VPC23031]
- activity at the S1P2 receptor (hS1P2): failed to show significant activity; also recorded: inactive

- agonist activity at the S1P4 receptor (hS1P4): good agonist activity
- agonist activity at S1P receptors (S1P receptors): significant agonist activity
Structure (SMILES): CCCCCCCCCCc1cccc(NC(=O)[C@H](N)CO)c1.O=C(O)C(F)(F)F [VPC23065]
- activity at the S1P2 receptor (hS1P2): failed to show significant activity; also recorded: inactive

- activity at the S1P3 receptor (inverse agonism/antagonism or agonism) (hS1P3): agonism
Structure (SMILES): CCCCCCCCCCc1cccc(NC(=O)[C@H](N)COP(=O)(O)O)c1.O=C(O)C(F)(F)F [VPC23069]
- activity at the S1P2 receptor (hS1P2): failed to show significant activity; also recorded: inactive

- agonist activity at the S1P4 receptor (hS1P4): good agonist activity
- agonist activity at S1P receptors (S1P receptors): significant agonist activity
Structure (SMILES): CCCCCCCCCc1cccc(NC(=O)[C@H](N)CO)c1.O=C(O)C(F)(F)F [VPC23075]
- activity at the S1P2 receptor (hS1P2): failed to show significant activity; also recorded: inactive

- activity at the S1P3 receptor (inverse agonism/antagonism or agonism) (hS1P3): agonism
Structure (SMILES): CCCCCCCCCc1cccc(NC(=O)[C@H](N)COP(=O)(O)O)c1.O=C(O)C(F)(F)F [VPC23079]
- activity at the S1P2 receptor (hS1P2): failed to show significant activity; also recorded: inactive

- agonist activity at the S1P4 receptor (hS1P4): good agonist activity
- agonist activity at S1P receptors (S1P receptors): significant agonist activity
Structure (SMILES): CCCCCCCCc1ccccc1NC(=O)[C@H](N)CO.O=C(O)C(F)(F)F [VPC23087]
- activity at the S1P2 receptor (hS1P2): failed to show significant activity; also recorded: inactive

- activity at the S1P3 receptor (inverse agonism/antagonism or agonism) (hS1P3): inverse agonists
Structure (SMILES): CCCCCCCCc1ccccc1NC(=O)[C@H](N)COP(=O)(O)O [VPC23089]
- activity at the S1P2 receptor (hS1P2): failed to show significant activity; also recorded: inactive
